Reference: ChEMBL document CHEMBL1136449, “A new class of glycogen phosphorylase inhibitors” (Bioorg Med Chem Lett, 2003)
pIC50: −log10 of the molar value.

How the values were obtained:
[1] = biological target: T1, Glycogen phosphorylase, liver form (Homo sapiens, UniProt P06737); experiment: Inhibitory activity against HLGP(human liver glycogen phosphorylase)
T1 sequence (P06737 whole entry): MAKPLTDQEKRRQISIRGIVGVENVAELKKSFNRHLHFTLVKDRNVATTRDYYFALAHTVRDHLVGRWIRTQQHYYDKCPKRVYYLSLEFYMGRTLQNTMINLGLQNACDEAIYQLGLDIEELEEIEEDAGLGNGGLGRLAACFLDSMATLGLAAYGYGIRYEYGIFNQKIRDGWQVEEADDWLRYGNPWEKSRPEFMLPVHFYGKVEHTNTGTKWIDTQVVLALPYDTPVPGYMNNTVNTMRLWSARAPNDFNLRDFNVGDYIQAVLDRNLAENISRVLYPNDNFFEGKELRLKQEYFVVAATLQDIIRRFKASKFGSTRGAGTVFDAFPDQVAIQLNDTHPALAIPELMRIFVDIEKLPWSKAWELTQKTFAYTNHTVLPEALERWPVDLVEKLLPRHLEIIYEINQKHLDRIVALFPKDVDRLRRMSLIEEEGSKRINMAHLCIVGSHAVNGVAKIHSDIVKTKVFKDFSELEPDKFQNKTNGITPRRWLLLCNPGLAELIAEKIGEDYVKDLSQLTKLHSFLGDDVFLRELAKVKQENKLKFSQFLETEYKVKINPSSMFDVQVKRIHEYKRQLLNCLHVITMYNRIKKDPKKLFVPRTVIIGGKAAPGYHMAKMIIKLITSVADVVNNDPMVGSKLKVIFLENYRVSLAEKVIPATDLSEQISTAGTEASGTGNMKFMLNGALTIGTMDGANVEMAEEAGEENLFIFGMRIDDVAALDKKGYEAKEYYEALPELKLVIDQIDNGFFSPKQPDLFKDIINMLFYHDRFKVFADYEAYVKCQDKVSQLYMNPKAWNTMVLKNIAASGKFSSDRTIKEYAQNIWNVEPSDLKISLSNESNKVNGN

[2] = biological target: T2, Glycogen phosphorylase, muscle form (Homo sapiens, UniProt P11217); experiment: Inhibitory activity against HMGP(human muscle glycogen phosphorylase)
T2 sequence (P11217 whole entry): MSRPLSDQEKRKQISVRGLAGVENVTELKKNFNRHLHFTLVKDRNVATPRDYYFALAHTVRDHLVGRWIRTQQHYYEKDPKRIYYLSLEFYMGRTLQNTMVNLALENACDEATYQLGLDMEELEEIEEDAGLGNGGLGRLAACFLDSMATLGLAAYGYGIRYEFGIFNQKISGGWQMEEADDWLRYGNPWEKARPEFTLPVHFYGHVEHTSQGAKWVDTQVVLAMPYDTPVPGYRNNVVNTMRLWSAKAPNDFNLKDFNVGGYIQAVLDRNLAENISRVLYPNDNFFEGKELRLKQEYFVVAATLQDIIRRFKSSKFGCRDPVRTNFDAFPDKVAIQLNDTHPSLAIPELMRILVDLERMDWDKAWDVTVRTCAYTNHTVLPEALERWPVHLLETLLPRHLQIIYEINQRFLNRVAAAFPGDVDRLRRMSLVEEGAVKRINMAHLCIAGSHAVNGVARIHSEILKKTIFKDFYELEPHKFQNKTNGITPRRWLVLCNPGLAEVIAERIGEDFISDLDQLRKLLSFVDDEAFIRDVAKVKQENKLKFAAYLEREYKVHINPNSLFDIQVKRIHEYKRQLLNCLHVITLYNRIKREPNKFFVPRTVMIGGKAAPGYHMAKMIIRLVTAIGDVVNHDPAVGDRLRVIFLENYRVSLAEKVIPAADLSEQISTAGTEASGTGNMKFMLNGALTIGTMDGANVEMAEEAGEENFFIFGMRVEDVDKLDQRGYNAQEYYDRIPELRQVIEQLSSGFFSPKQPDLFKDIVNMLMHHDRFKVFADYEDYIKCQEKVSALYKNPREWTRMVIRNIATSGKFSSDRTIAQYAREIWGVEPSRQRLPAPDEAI

[3] = biological target: T3, Glycogen phosphorylase, liver form (Mus musculus, UniProt Q9ET01); experiment: Inhibitory activity against mouse liver glycogen phosphorylase
T3 sequence (Q9ET01 whole entry): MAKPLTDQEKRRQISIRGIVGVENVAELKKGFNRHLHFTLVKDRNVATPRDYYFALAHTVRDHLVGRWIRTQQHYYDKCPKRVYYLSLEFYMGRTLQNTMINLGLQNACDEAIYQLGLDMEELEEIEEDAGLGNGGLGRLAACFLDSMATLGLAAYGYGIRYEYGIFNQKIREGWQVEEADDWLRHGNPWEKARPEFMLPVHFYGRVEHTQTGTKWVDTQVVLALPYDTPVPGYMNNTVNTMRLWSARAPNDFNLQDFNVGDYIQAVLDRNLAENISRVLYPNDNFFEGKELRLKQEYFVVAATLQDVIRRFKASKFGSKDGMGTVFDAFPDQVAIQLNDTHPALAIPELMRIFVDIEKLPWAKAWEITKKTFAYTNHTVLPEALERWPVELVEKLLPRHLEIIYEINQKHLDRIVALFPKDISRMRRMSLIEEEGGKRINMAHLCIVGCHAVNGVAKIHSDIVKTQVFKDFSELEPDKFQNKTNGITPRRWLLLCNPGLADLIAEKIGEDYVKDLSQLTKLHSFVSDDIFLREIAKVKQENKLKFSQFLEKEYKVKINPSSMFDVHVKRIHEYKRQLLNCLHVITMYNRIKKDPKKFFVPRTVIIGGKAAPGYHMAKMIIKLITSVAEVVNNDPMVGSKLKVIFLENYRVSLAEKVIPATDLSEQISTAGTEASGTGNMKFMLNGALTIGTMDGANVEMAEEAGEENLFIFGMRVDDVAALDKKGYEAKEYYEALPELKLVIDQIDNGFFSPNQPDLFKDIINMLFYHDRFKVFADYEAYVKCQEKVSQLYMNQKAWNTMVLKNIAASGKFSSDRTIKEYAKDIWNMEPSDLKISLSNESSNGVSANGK

[4] = biological target: T4, Glycogen phosphorylase, liver form (Rattus norvegicus, UniProt P09811); experiment: Inhibitory activity against rat liver glycogen phosphorylase
T4 sequence (P09811 whole entry): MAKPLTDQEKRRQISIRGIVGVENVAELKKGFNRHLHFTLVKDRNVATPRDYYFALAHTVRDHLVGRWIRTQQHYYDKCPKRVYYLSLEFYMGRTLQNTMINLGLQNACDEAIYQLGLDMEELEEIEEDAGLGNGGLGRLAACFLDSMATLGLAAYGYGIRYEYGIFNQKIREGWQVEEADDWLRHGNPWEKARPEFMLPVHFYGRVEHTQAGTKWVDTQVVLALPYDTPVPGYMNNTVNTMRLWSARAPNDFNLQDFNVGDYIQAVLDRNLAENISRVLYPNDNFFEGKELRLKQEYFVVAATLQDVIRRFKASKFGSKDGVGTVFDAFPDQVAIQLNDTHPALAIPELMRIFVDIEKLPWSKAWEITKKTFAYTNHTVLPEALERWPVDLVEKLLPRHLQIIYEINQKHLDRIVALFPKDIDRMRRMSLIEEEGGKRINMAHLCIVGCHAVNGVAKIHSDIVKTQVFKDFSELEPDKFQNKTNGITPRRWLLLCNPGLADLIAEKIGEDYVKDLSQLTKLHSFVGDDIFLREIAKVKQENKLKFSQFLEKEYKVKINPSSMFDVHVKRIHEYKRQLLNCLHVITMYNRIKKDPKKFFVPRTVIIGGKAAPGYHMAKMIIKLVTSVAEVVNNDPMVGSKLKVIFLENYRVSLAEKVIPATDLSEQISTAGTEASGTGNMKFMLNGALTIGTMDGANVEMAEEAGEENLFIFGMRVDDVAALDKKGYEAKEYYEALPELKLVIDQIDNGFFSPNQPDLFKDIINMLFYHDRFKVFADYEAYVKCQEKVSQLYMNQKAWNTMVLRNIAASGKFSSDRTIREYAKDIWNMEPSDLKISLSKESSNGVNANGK

[5] = Cmax in male mice after 2 mg/kg oral dose; type: ADME, organism-based; parameters: dose 2 mg/kg, route oral; conditions: mouse, in vivo
[6] = Bioavailability in male mice, 2mg/kg oral and 1 mg/kg intravenous dose; type: ADME, organism-based; conditions: mouse, in vivo
[7] = Half-life in male mice after 1 mg/kg intravenous dose; type: ADME, organism-based; parameters: dose 1 mg/kg, route intravenous; conditions: mouse, in vivo

Compound | pIC50 [1] | pIC50 [2] | pIC50 [3] | pIC50 [4] | Cmax [5] [nM] | bioavailability [6] [%] | half-life [7] [h]
O=C(Nc1cc(F)ccc1Oc1ccc(C(=O)O)c(C(=O)O)c1)c1cc(Cl)ccn1 | 7.11 | 6.19 | – | – | – | – | –
O=C(Nc1cc2ccccc2cc1Oc1ccc(C(=O)O)c(C(=O)O)c1)c1ccccc1 | 5.54 | 4.91 | – | – | – | – | –
COc1ccnc(C(=O)Nc2ccccc2Oc2ccc(C(=O)O)c(C(=O)O)c2)c1 | 7.70 | 6.70 | 7.74 | 7.62 | – | – | –
O=C(Nc1ccccc1Oc1ccc(C(=O)O)c(C(=O)O)c1)c1cc([N+](=O)[O-])ccn1 | 8.52 | 7.60 | – | – | – | – | –
N#Cc1ccnc(C(=O)Nc2ccccc2Oc2ccc(C(=O)O)c(C(=O)O)c2)c1 | 7.80 | 6.78 | 7.85 | 7.72 | – | – | –
O=C(Nc1ccccc1Oc1ccc(C(=O)O)c(C(=O)O)c1)c1cc(I)ccn1 | 7.41 | 6.33 | – | – | – | – | –
O=C(Nc1c(F)cccc1Oc1ccc(C(=O)O)c(C(=O)O)c1)c1cc(Cl)ccn1 | 8.00 | 7.22 | > 8.05 | > 8.05 | 44 | 4.1 | 1
O=C(Nc1cc2ccccc2cc1Oc1ccc(C(=O)O)c(C(=O)O)c1)c1ccccn1 | 6.78 | 6.07 | – | – | – | – | –
O=C(Nc1cc(F)ccc1Oc1ccc(C(=O)O)c(C(=O)O)c1)c1cc([N+](=O)[O-])ccn1 | 7.89 | 6.96 | – | – | – | – | –
CCc1ccnc(C(=O)Nc2cc3ccccc3cc2Oc2ccc(C(=O)O)c(C(=O)O)c2)c1 | 8.40 | 7.54 | – | – | – | – | –
COc1ccnc(C(=O)Nc2c(F)cccc2Oc2ccc(C(=O)O)c(C(=O)O)c2)c1 | 7.96 | 6.96 | – | – | – | – | –
O=C(Nc1c(F)cccc1Oc1ccc(C(=O)O)c(C(=O)O)c1)c1cccc([N+](=O)[O-])c1 | 6.60 | 5.73 | 6.68 | 6.52 | – | – | –
O=C(Nc1cc2ccccc2cc1Oc1ccc(C(=O)O)c(C(=O)O)c1)c1cc(Cl)ccn1 | 8.70 | 7.92 | – | – | – | – | –
O=C(Nc1c(F)cccc1Oc1ccc(C(=O)O)c(C(=O)O)c1)c1cc([N+](=O)[O-])ccn1 | 9.00 | 8.05 | – | – | – | – | –
Cc1ccnc(C(=O)Nc2cc3ccccc3cc2Oc2ccc(C(=O)O)c(C(=O)O)c2)c1 | 8.00 | 7.24 | – | – | – | – | –
O=C(Nc1ccccc1Oc1ccc(C(=O)O)c(C(=O)O)c1)c1cc(Cl)ccn1 | 7.77 | 6.74 | 7.85 | 7.80 | – | – | –
O=C(Nc1cc2ccccc2cc1Oc1ccc(C(=O)O)c(C(=O)O)c1)c1cc([N+](=O)[O-])ccn1 | 9.00 | 8.52 | – | – | – | – | –
O=C(Nc1cc2ccccc2cc1Oc1ccc(C(=O)O)c(C(=O)O)c1)c1cc(C(F)(F)F)ccn1 | 7.92 | 7.10 | – | – | – | – | –
COc1ccnc(C(=O)Nc2cc3ccccc3cc2Oc2ccc(C(=O)O)c(C(=O)O)c2)c1 | 8.70 | 7.92 | – | – | – | – | –
O=C(Nc1cc2ccccc2cc1Oc1ccc(C(=O)O)c(C(=O)O)c1)c1cccc([N+](=O)[O-])c1 | 7.64 | 6.85 | – | – | – | – | –
